According to patent US8415479B2, “Inhibitor of plasminogen activator inhibitor-1” (Renascience Co., Ltd., priority 2008, dated 2013):

Tests used:
PAI-1 [1] = molecular target: T1, PAI-1 (Homo sapiens, UniProt P05121); experiment: Measurement of PAI-1 inhibitory activity (t-PA / chromogenic substrate S-2288); details: statement in words referring to the test example (compound at 20 μM or 50 μM); numeric PAI-1 activities (%) only in FIGS. 1 to 7
Description: The change in PAI-1 activity can be examined by setting, as an index, a reaction product produced by the action of t-PA on a substrate. […] It can be judged that when the amount of reaction product is larger, the PAI-1 inhibitory action is higher.
More specifically, human-derived PAI-1 was added to a 0.1% Tween 80-containing 100 mM Tris-HCl (pH 8) solution containing each of the above compounds in a given concentration (20 μM or 50 μM), and incubated at 37° C. for 15 minutes. Subsequently, human-derived tissue plasminogen activator (t-PA) (manufactured by American Diagnostica, Inc. (USA); the same applies hereinafter) adjusted to 0.3 pmol/μL, was added thereto, and further incubated at 37° C. for 15 minutes.

[2] = test system: mouse model with pulmonary fibrosis artificially induced by bleomycin; experiment: Reference Test Example (3) effects on bleomycin-induced pulmonary fibrosis; assay type: in vivo, C57BL/6 mouse; details: scored from 0 to 8 (method of Ashcort et al.); bleomycin + compound b 200 mg/kg p.o. twice/day for 14 days; FIG. 9
Description: A C57BL/6 mouse (male, body weight: 19 to 21 g) was intraperitoneally anesthetized with pentobarbital, and an incision was made on the cervical organ. Ten mice were used as controls. The control mice (n=10) were endotracheally administered bleomycin (produced by Nippon Kayaku Co., Ltd.) (1.5 U/kg) lysed in physiological saline, twice a day for 14 days. On the other hand, the test mice were subjected to forcible oral administration with the compound b (200 mg/kg), suspended in a 0.5% carboxymethyl cellulose aqueous solution, twice a day for 14 days, in addition to the above endotracheal administration. Then, the lung tissues taken from these control mice and the test mice were analyzed, and further assayed for hydroxyproline levels. The hydroxyproline levels in the lung tissues were assayed in terms of the level in the hydrolysate of the lung tissues as described in the method of Kivirikko et al. (Anal. Biochem. 19, 249-255 (1967)). The levels (severity) of pulmonary fibrosis were scored from 0 to 8, based on the method of Ashcort et al. (J. Clin. Pathol. 41, 467-470 (1988)). Further, the control mice and the test mice were assayed for plasma PAI-1 activity (ng/mL).

PAI-1 [3] = molecular target: T1, PAI-1; experiment: Reference Test Example (2) evaluation of fibrinolytic action (fibrin plate, mixture of PAI-1, t-PA and test compound); assay type: biochemical; parameters: purchased Molecular Innovations Inc. (USA); details: room temperature, 18 hours
Description: The compounds a and b were evaluated for fibrinolytic action in accordance with the document (Matsuo, O. et al., Haemostasis, 16, 43-50 (1986)).
More specifically, an aqueous solution (containing 25 mM barbital-sodium, 50 mM NaCl, and 25 mM CaCl2) containing a concentration of 1.5 mg/mL of fibrinogen (produced by Organon Teknica) was added, on a 9 cm-plate, to thrombin dissolved in 0.2 mL of physiological saline (10NIH U/mL: produced by Mochida Pharmaceutical Co., Ltd.), and the mixture was allowed to stand at room temperature for 2 hours. Using this mixture, fibrinolysis assay was conducted.
Namely, a mixture of PAI-1, t-PA, and each of the test compounds was dropped onto the plate and incubated at room temperature for 18 hours. After the incubation, fibrinolysis due to plasminogen activation was measured from the lysis area on the plate.

PAI-1 [4] = molecular target: T1, PAI-1; experiment: Reference Test Example (1) PAI-1 inhibitory activity assay (t-PA / S-2288); assay type: biochemical; parameters: purchased Molecular Innovation(s) Inc. (USA); details: concentrations of 35 μM and 50 μM; FIG. 8
Description: P-nitranilide removed from the chromogenic substrate (S-2288) by t-PA action was measured using a spectrophotometer at an absorbance of 405 nm at 5-minute intervals for 30 minutes.
Comparative tests were carried out in the same manner using, in place of the above test compounds, a compound (tiplaxtinin) of the formula below used as an antithrombotic drug in US clinical trials (provided that the given concentrations were 20, 35, and 50 μM).
FIGS. 8 (A), (B), and (C) each show PAI-1 activity (%) when the compound a (concentrations: 20, 35, and 50 μM), the compound b (concentrations: 20, 35, and 50 μM), and tiplaxtinin (comparative compound) (concentrations: 20, 35, and 50 μM) are added, respectively.

T1 sequence (P05121 24-402): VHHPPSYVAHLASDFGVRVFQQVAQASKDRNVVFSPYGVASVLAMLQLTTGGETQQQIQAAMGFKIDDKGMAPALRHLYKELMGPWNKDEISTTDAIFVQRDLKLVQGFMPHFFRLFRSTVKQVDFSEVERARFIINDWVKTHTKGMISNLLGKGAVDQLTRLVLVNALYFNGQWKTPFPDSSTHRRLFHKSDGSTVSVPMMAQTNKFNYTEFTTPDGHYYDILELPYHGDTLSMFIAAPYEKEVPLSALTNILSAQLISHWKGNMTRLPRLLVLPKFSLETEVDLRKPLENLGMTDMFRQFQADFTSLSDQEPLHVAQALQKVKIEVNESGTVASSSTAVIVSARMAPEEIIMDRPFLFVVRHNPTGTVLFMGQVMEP

Compound | inhibitory action on PAI-1 activity (PAI-1 [1]) | other results
O=C(COCC(=O)Nc1ccc(Cl)cc1C(=O)O)Nc1ccc(-c2ccncc2)cc1 [Compound 1, 5-chloro-2-([(2-oxo-2-([4-(pyridin-4-yl)phenyl]amino)ethoxy)acetyl]amino)benzoic acid] | excellent inhibitory action on PAI-1 activity | 
O=C(COCC(=O)Nc1ccc(Cl)cc1C(=O)O)Nc1cccc(-c2cccs2)c1 [Compound 63, 5-chloro-2-([(2-oxo-2-([3-(thiophen-2-yl)phenyl]amino)ethoxy)acetyl]amino)benzoic acid] | excellent inhibitory action on PAI-1 activity | 
CC(=O)Nc1ccc(-c2ccc(C)c(NC(=O)COCC(=O)Nc3ccc(Cl)cc3C(=O)O)c2)cc1 [Compound 44, 2-([(2-([4′-(acetylamino)-4-methylbiphenyl-3-yl]amino)-2-oxoethoxy)acetyl]amino)-5-chlorobenzoic acid] | excellent inhibitory action on PAI-1 activity | 
CCC(CC(=O)Nc1scc(-c2cccs2)c1C(=O)O)C(=O)Nc1scc(-c2cccs2)c1C(=O)O (centres unmarked) [compound b, 2-[3-(3′-carboxy-4′-thienylthiophen-2′-ylcarbamoyl)-pentanoylamino]-4-thienylthiophen-3-carboxylic acid] |  | fibrosis score [2]: 2.9±0.42; fibrinolytic action (lysis area on fibrin plate) (PAI-1 [3]): inhibit fibrinolysis suppression caused by PAI-1; PAI-1 activity inhibitory action compared with tiplaxtinin (PAI-1 [4]): higher PAI-1 activity inhibitory action at concentrations of 35 μM and 50 μM than tiplaxtinin
O=C(COCC(=O)Nc1ccc(Cl)cc1C(=O)O)Nc1cccc(Cc2ccoc2)c1 [Compound 55, 5-chloro-2-([(2-([3-(furan-3-ylmethyl)phenyl]amino)-2-oxoethoxy)acetyl]amino)benzoic acid] | excellent inhibitory action on PAI-1 activity | 
CCC(CC(=O)Nc1scc(-c2ccccc2)c1C(=O)O)C(=O)Nc1scc(-c2ccccc2)c1C(=O)O (centres unmarked) [compound a, 2-[3-(3′-carboxy-4′-phenylthiophen-2′-ylcarbamoyl)-pentanoylamino]-4-phenylthiophen-3-carboxylic acid] |  | fibrinolytic action (lysis area on fibrin plate) (PAI-1 [3]): inhibit fibrinolysis suppression caused by PAI-1; PAI-1 activity inhibitory action compared with tiplaxtinin (PAI-1 [4]): higher PAI-1 activity inhibitory action at concentrations of 35 μM and 50 μM than tiplaxtinin
Cc1ccc(-c2ccc(F)cc2)cc1NC(=O)C(=O)Nc1ccc(Cl)cc1C(=O)[O-].[Na+] [Compound 20, 5-chloro-2-(([(4′-fluoro-4-methylbiphenyl-3-yl)amino](oxo)acetyl)amino)benzoic acid.sodium salt] | excellent inhibitory action on PAI-1 activity | 
O=C(COCC(=O)NC1CCCCCCCCCCC1)Nc1ccc(Cl)cc1C(=O)O [Compound 11, 5-chloro-2-(([2-(cyclododecylamino)-2-oxoethoxy]acetyl)amino)benzoic acid] | excellent inhibitory action on PAI-1 activity | 
O=C(COCC(=O)Nc1ccc(Cl)cc1C(=O)O)Nc1cccc(-c2ccncc2)c1 [Compound 2, 5-chloro-2-([(2-oxo-2-([3-(pyridin-4-yl)phenyl]amino)ethoxy)acetyl]amino)benzoic acid] | excellent inhibitory action on PAI-1 activity | 
O=C(COCC(=O)N(c1ccccc1)C1CCCCC1)Nc1ccc(Cl)cc1C(=O)[O-].[Na+] [Compound 15, 5-chloro-2-[((2-[cyclohexyl(phenyl)amino]-2-oxoethoxy)acetyl)amino]benzoic acid.sodium salt] | excellent inhibitory action on PAI-1 activity | 
O=C(COCC(=O)Nc1ccc(Cl)cc1C(=O)O)Nc1ccc(-c2ccoc2)cc1 [Compound 64, 5-chloro-2-([(2-([4-(furan-3-yl)phenyl]amino)-2-oxoethoxy)acetyl]amino)benzoic acid] | excellent inhibitory action on PAI-1 activity | 
